Results on one compound are retold here after article PMC12320831, “Synthesis and Biological Evaluation of New Chalcogen Semicarbazone (S, Se) and Their Azole Derivatives against Chagas Disease” (Journal of Medicinal Chemistry, 2024).

A short description of the assay: DPPH radical scavenging (antioxidant) assay. Particulars: for Percentage of inhibited DPPH (2 h): mean ± SEM. How it is done: The antioxidant capacity of the selected Se compound was tested using the DPPH assay described by Astrain-Redin. The compound was tested at three different concentrations (0.06, 0.03, and 0.015 mg/mL) and we used two positive controls: ascorbic acid (ASC) and trolox (TRO). A solution of DPPH (2,2-diphenyl-1-picrylhydrazyl) in methanol (0.04 mg/mL, preserved in the dark) was prepared and 100 μL of this stock solution was added to 100 μL of tested compound solution. The color change, from purple (radical) to yellow (reduced), was measured at 517 nm at different time points (0, 5, 15, 30, 60, 90, and 120 min). All measurements were carried out in triplicate and recorded on a BioTek PowerWave XS spectrophotometer (Biotek). Data were collected using BioTek Gen5Microplate reader and Imager software (Agilent, version 3.12). Results are expressed as a percentage of inhibited DPPH ± standard error of the mean (SEM), calculated using the following formula %inhibitedDPPH=Acontrol−Asample/Acontrol×100 where A control refers to the absorbance of the negative control and A sample refers to the absorbance of the tested compound.
In general terms: The DPPH test is a chemical assay of radical scavenging.

`C/C(=N\Nc1nc(C)c[se]1)c1cccc([N+](=O)[O-])c1.Cl` [Se2h, (E)-4-Methyl-2-(2-(1-(3-nitrophenyl)ethylidene)hydrazineyl)-1,3-selenazole Hydrochloride]: the “Percentage of inhibited DPPH (2 h)” value was 78,00 ± 1,73% (0,03 mg/ml), 78,33 ± 1,76% (0,06 mg/ml) and 77,33 ± 0,88% (0,015 mg/ml). In addition, the “time to reach the plateau of the DPPH kinetic curve” value (0.015 mg/mL) is recorded as 30 min. In addition, the “inhibition of DPPH after 2 h” value (all tested concentrations (0.06, 0.03 and 0.015 mg/mL)) is reported as “more than 60%”.
